According to patent EP3095787A1, “[…] ACTIVE COMPOUNDS AS DAG-LIPASE INHIBITORS” (Universiteit Leiden, priority 2015, dated 2016):
Entries after “also recorded” stand apart in the source; their conditions may differ.

What was measured:
[1] = target: T1, DAGL-α (Mus musculus, UniProt Q6WQJ1); experiment: Competitive ABPP with MB064 on endogenous DAGL-α in mouse brain membrane proteome; type: biochemical; conditions: MB064 250 nM, n=3, read-out: pIC50 of DAGL-α labeling by MB064 (converted)
T1 construct: endogenously expressed DAGL-α in mouse membrane proteome; from tissue; host or cells: mouse brain membrane proteome
T1 sequence (Q6WQJ1 1-1044): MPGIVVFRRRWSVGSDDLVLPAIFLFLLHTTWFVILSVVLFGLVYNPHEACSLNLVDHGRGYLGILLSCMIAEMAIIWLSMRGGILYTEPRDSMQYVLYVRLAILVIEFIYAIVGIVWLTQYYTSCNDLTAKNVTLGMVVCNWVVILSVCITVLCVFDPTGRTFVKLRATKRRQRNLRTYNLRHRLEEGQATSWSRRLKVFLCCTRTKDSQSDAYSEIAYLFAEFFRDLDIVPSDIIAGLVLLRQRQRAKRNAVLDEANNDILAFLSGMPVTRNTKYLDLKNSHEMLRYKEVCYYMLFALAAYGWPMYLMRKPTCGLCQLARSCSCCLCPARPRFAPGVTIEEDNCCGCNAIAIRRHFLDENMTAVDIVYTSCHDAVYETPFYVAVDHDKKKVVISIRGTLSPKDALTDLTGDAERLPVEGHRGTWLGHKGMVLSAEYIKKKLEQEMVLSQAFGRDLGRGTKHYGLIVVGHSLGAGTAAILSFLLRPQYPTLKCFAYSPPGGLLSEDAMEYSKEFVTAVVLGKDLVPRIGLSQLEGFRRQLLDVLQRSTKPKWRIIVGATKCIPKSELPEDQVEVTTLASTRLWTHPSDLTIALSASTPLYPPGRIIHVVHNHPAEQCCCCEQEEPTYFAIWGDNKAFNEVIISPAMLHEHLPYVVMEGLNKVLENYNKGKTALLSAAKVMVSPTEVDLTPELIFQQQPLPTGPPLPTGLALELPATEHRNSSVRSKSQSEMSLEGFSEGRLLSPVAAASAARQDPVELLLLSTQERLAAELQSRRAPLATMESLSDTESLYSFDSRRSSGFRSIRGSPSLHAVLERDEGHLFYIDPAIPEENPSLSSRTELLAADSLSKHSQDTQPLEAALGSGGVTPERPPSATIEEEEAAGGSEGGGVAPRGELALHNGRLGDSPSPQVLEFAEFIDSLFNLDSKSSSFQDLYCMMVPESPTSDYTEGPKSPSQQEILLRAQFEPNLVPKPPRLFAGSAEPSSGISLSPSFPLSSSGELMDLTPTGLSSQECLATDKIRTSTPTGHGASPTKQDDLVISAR
Description: To test its activity on endogenously expressed DAGL-α in mouse membrane proteome, an ABPP assay with MB064, a specific β-lactone-containing probe, which was tailor-made for the detection of DAGL-α activity, was used. An alkyne group was introduced in the prototypical DAGL-inhibitor tetrahydrolipstatin (THL) and conjugated this covalent, irreversible inhibitor via copper-catalyzed click chemistry to a BODIPY-acid as a fluorencent reporter group to yield tailor-made probe MB064.

[2] = test system: CA1 pyramidal neurons; experiment: Depolarization-induced suppression of inhibition (DSI) in hippocampal slices, whole-cell voltage clamp; type: cell-based; conditions: 10 µM bath application, pre-incubated at least 30 min; mouse hippocampal slices
Description: Experimental evidence, which supports a role of DAGL-α in short-term synaptic plasticity, has been obtained through the use of genetically engineered mice that constitutively lack DAGL-α. DSI was absent in these DAGL-α knock-out mice, but not in their DAGL-β knock-out counter parts.
Horizontal slices (300 µm) of the hippocampus were obtained from male C57BL/6 mice (Harlan, the Netherlands) aged 14-19 days postnatal. Experiments were approved by the animal welfare committee of the University of Amsterdam. […] Inhibitory postsynaptic currents (IPSCs) were evoked with a glass stimulus electrode (filled with ACSF) positioned in the stratum radiatum, close to the recorded neuron. […]
Stock solutions (10 mM) of LEI105 were made in dimethylsulfoxide (DMSO), which was diluted to the final concentration (10 µM) in ACSF. […] Control experiments were performed on neurons recorded in slices pre-incubated with and in the continuous presence of 0.1 % DMSO.
For each CA1 neuron IPSCs were evoked with 5 sec intervals during a 2-min baseline period, prior to the stimulus evoking depolarization-induced suppression of inhibition (DSI). The maximum amplitude of each IPSC was determined and the mean value of the IPCS amplitudes over this period was calculated and used to normalize the evoked synaptic response. […]

IC50 [1]: 31.6 nM
SMILES: Cc1ccc(-c2cnc3nc(C(=O)CCCCCc4ccccc4)oc3c2)cc1 [Compound 25, 1-(6-(p-Tolyl)oxazolo[4,5-b]pyridin-2-yl)-6-phenylhexan-1-one]
DSI [2]: clear suppression of DSI; also recorded: DSI is reduced
